Tests used:
Type in all cases: in vivo, human
[1] = system: patients suffering from FBSS (lumbar pain); experiment: Clinical study: pain evaluation by Numeric Rating Scales (NRS) after peridural infiltration; settings: 11 FBSS patients, epidural 1 ml of 50 or 100 mg/ml, +1 week
From the text: 11 patients (7 males and 4 females), of ages ranging between 48 and 78 years, and suffering from FBSS, were studied (according to the operative diagram in FIG. 1) for a 9-month period. As criteria for inclusion in the treatment protocol were considered: • failed back surgery syndrome (FBSS) • lumbar pain present for >3 months • absence of improvement of pain with administration of oral pharmacological analgesics/opioids-based therapy; • non-eligibility for lumbar revision surgery treatment. • patients refusing treatment; • carriers of infections localized at the level of the infiltration site; • undergoing systemic infective processes; • coagulation alterations. After having been evaluated under the clinical instrumental standpoint, the patient was subjected to infiltrative treatment upon coagulation testing and replacement of oral anticoagulant therapy (possibly taken by the patient), with low molecular weight heparin. Infiltration was conducted in Day Surgery regimen, inviting the patient to have it on an empty stomach. […] The drug at issue, sodium 2-mercaptoethansulfonate, was contained in an ampoule with a 10% concentration; for each infiltration, 1 ml was collected and the concentration used was of 50 mg/ml in some cases and of 100 mg/ml in other cases. The entire infiltration procedure required 10-15 min. Of the 11 patients, 2 had already undergone 3 surgical interventions to the lumbar rachis, other 2 had undergone 2 interventions, and 7 had undergone 1 intervention. […] In particular, we asked to assign a value (comprised between 0 and 10) to pain intensity in a standing position, in horizontal posture, and while sitting; evaluation of the 3 parameters helped us in pain classification, and was aimed at determining musculoskeletal and gravity activation at different instants and the quantitative impact on pain intensity caused by the assuming of the different positions. […] To the first answer a score equal to 0 was assigned, to the second one equal to 1, and so on until the sixth answer that would be equal to 5. the score is calculated as follows: TOTAL SCORE/(5×9)×100.

[2] = system: patients suffering from FBSS (lumbar pain); experiment: Clinical study: lumbar rachis functionality by Oswestry Disability Index (ODI); settings: 11 FBSS patients; epidural 1 ml of 50 or 100 mg/ml; +1 week; before the procedure 52.18%; P=0.05
From the text: 11 patients (7 males and 4 females), of ages ranging between 48 and 78 years, and suffering from FBSS, were studied (according to the operative diagram in FIG. 1) for a 9-month period. As criteria for inclusion in the treatment protocol were considered: • failed back surgery syndrome (FBSS) • lumbar pain present for >3 months • absence of improvement of pain with administration of oral pharmacological analgesics/opioids-based therapy; • non-eligibility for lumbar revision surgery treatment. • patients refusing treatment; • carriers of infections localized at the level of the infiltration site; • undergoing systemic infective processes; • coagulation alterations. After having been evaluated under the clinical instrumental standpoint, the patient was subjected to infiltrative treatment upon coagulation testing and replacement of oral anticoagulant therapy (possibly taken by the patient), with low molecular weight heparin. […] In particular, we asked to assign a value (comprised between 0 and 10) to pain intensity in a standing position, in horizontal posture, and while sitting; evaluation of the 3 parameters helped us in pain classification, and was aimed at determining musculoskeletal and gravity activation at different instants and the quantitative impact on pain intensity caused by the assuming of the different positions. […]

[3] = system: patients suffering from FBSS (lumbar pain); experiment: Clinical study: functional improvement by Odom's criteria; settings: out of 11 FBSS patients; after epidural infiltration
From the text: 11 patients (7 males and 4 females), of ages ranging between 48 and 78 years, and suffering from FBSS, were studied (according to the operative diagram in FIG. 1) for a 9-month period. As criteria for inclusion in the treatment protocol were considered: • failed back surgery syndrome (FBSS) • lumbar pain present for >3 months • absence of improvement of pain with administration of oral pharmacological analgesics/opioids-based therapy; • non-eligibility for lumbar revision surgery treatment. • patients refusing treatment; • carriers of infections localized at the level of the infiltration site; • undergoing systemic infective processes; • coagulation alterations. After having been evaluated under the clinical instrumental standpoint, the patient was subjected to infiltrative treatment upon coagulation testing and replacement of oral anticoagulant therapy (possibly taken by the patient), with low molecular weight heparin. Infiltration was conducted in Day Surgery regimen, inviting the patient to have it on an empty stomach. […] The drug at issue, sodium 2-mercaptoethansulfonate, was contained in an ampoule with a 10% concentration; for each infiltration, 1 ml was collected and the concentration used was of 50 mg/ml in some cases and of 100 mg/ml in other cases. The entire infiltration procedure required 10-15 min. Of the 11 patients, 2 had already undergone 3 surgical interventions to the lumbar rachis, other 2 had undergone 2 interventions, and 7 had undergone 1 intervention. In particular, 4 had undergone an herniectomy, 2 an hemilaminectomy, 2 an herniectomy plus an hemilaminectomy and 3 a vertebral stabilization intervention. The levels involved were comprised between L1 and S1, with an extension range of 2 to 5 levels. Each patient was subjected, on average, to 2 (range comprised between 1 and 4) peridural infiltrations of sodium 2 mercaptoethane sulfonate (FIG. 2).

What does the source list for O=S(=O)([O-])CCS.[Na+] [sodium 2-mercaptoethane sulfonate, Sodium 2-mercaptoethane sulfonate]?
mean pain NRS (0-10) in a sitting position following the procedure ([1]; on average 2 infiltrations, pre-procedure mean 7.0, P=0.002): 5.55; mean pain NRS (0-10) in a horizontal position following the procedure ([1]; pre-procedure mean 6.64, P=0.001): 4.82; mean pain NRS (0-10) standing following the procedure ([1]; pre-procedure mean 7.36, P=0.01): 5.73; Oswestry Disability Index (ODI), average after the procedure [2]: 41.64%; Odom's criteria: number of patients with Excellent result [3]: 0 patients; Odom's criteria: number of patients with Fair result [3]: 4 patients; Odom's criteria: number of patients with Good result [3]: 7 patients; Odom's criteria: number of patients with Poor result [3]: 0 patients; Odom's criteria: share of patients with Fair result [3]: 36.4%; Odom's criteria: share of patients with Good result [3]: 63.6%

Source: patent US20130085182A1, “SODIUM 2-MERCAPTOETHANE SULFONATE FOR USE IN THE TREATMENT OF LUMBAR PAIN” (UNIVERSITA' CAMPUS BIO-MEDICO DI ROMA, priority 2010, published 2013)
